Experimental data from ChEMBL document CHEMBL1201862, “PubChem BioAssay data set” (2004).
Calls of active or inactive are those of the source.

Legend:
[1] = target: Voltage-gated inwardly rectifying potassium channel KCNH2 (Homo sapiens, UniProt Q12809); conditions: Potency;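 further: confirmatory quantitative high-throughput screen measuring inhibition of hERG channel activity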
[2] = target: T1, Tyrosine-protein phosphatase non-receptor type 7 (Homo sapiens, UniProt P35236); assay: redox-dependent HePTP inhibition, mechanism study, biochemical, fluorescence (AID 2068); type: functional
T1 sequence (P35236 whole entry): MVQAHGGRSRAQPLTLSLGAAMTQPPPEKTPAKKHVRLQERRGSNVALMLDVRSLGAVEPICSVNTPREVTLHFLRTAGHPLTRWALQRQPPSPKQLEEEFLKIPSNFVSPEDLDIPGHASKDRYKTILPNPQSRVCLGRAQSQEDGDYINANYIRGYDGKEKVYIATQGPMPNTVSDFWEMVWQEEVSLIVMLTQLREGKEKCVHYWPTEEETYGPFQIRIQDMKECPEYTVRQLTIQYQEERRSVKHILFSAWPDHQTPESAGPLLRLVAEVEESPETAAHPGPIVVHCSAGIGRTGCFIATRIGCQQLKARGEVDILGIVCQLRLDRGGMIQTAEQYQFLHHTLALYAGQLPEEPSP

[3] = target: T2, Tyrosine-protein phosphatase non-receptor type 22 (Homo sapiens, UniProt Q9Y2R2); assay: SAR LYP1 Fluorescent Assay using OMFP substrate for In Vitro dose response studies - Set 3. [Related pubchem assays (depositor defined):AID1779, AID1784, AID2140, AID2686]; type: functional
T2 sequence (Q9Y2R2 whole entry): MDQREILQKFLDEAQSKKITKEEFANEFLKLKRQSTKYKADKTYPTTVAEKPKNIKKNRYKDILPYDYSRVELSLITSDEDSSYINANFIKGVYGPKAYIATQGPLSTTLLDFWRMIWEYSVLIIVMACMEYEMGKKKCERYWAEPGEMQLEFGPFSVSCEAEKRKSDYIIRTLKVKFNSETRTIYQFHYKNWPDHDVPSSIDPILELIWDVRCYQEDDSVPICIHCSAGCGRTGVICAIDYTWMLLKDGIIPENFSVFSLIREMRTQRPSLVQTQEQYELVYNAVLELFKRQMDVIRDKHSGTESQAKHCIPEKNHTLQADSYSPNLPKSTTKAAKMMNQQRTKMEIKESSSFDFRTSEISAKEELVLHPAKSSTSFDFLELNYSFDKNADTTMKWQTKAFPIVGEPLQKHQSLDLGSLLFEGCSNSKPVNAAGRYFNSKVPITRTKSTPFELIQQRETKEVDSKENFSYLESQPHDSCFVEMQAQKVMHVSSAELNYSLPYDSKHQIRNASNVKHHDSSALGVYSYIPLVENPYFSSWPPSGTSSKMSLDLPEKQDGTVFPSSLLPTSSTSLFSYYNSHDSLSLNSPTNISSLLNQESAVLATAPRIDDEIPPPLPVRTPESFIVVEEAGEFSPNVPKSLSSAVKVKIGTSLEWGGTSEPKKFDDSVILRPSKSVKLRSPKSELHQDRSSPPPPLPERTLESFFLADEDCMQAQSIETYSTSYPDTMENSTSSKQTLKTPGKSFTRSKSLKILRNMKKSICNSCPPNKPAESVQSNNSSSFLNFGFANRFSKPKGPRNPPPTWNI

[4] = target: Dual specificity protein phosphatase 3 (Homo sapiens, UniProt P51452); assay: SAR VHR1 Fluorescent Assay for In Vitro dose response studies Set 2. [Related pubchem assays (depositor defined):AID1654, AID1661, AID1878]; type: functional
Sequence of Dual specificity protein phosphatase 3 (P51452 whole entry): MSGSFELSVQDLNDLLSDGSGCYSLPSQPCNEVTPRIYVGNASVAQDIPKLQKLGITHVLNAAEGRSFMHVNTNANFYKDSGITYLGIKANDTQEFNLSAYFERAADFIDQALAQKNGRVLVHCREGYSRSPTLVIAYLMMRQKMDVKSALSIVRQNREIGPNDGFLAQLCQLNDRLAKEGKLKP

[5] = target: T1, Tyrosine-protein phosphatase non-receptor type 7; assay: HePTP (PTPN7) phosphatase inhibitor potency, SAR follow-up, biochemical, set 2 (AID 449736); type: functional
[6] = target: T3, Dual specificity protein phosphatase 6 (Rattus norvegicus, UniProt Q64346); type: functional;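 further: confirmatory in vitro dose-response testing of MKP-3 inhibition; recombinant His-tagged MKP-3 made in E. coli BL21 with OMFP substrate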
T3 sequence (Q64346 whole entry): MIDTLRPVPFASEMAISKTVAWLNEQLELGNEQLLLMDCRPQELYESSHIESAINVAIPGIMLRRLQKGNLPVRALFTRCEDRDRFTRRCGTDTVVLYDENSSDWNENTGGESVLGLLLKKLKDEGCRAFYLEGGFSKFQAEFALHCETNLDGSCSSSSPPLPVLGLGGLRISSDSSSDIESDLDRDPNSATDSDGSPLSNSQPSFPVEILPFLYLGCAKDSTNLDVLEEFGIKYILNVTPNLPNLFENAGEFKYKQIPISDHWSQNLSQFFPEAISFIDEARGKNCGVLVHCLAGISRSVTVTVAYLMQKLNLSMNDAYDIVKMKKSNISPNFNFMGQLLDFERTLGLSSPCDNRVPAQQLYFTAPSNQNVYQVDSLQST

[7] = target: T2, Tyrosine-protein phosphatase non-receptor type 22; assay: LYP (PTPN22) phosphatase inhibitor potency, SAR follow-up, biochemical, pCAP fluorogenic substrate, fluorescence, set 3 (AID 449727); type: functional
[8] = target: Tyrosine-protein phosphatase non-receptor type 12 (Homo sapiens, UniProt Q05209); assay: SAR Selectivity Analysis of small molecule inhibitors of PEST using pCAP in a fluorescence assay. [Related pubchem assays (depositor defined):AID1779, AID1784, AID2135]; type: functional
Sequence of Tyrosine-protein phosphatase non-receptor type 12 (Q05209 whole entry): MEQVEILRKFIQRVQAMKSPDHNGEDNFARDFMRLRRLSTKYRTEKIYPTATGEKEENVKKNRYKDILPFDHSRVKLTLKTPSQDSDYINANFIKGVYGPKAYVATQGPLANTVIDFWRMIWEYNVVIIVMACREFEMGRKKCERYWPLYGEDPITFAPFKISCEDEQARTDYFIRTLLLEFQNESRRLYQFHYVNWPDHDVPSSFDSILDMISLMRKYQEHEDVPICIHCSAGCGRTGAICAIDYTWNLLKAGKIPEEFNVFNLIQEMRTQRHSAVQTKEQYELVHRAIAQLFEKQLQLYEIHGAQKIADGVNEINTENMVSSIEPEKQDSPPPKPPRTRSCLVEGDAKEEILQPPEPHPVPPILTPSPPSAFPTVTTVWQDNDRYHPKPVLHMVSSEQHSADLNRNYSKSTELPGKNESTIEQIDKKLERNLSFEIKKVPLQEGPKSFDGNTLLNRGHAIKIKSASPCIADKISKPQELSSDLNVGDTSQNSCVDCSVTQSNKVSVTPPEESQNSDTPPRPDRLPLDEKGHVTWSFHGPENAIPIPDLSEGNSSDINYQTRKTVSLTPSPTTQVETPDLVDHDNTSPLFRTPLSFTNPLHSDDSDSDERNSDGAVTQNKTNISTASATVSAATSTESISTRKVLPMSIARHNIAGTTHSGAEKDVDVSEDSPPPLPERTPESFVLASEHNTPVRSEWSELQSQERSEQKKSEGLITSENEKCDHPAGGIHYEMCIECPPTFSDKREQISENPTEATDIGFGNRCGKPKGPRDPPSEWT

HeLa = assay: HeLa cell cytotoxicity, dose response, cytotoxicity control for MITF activator project, CellTiter-Glo luminescence, cherry-pick samples (AID 540259); type: functional, cell-based; conditions: Homo sapiens
[9] = inhibitors of intracellular T. cruzi replication, confirmation, NIH3T3 host cells, beta-gal luminescence (AID 2044); type: functional, cell-based;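 further: intracellular parasites grown in NIH/3T3 mouse fibroblasts as host cells; luminescent beta-galactosidase reporter signal from transgenic T. cruzi replicating inside host cells; inhibitors lower the luminescence signal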
Jurkat = assay: antigen receptor-induced NF-kB inhibitors, dose response, Jurkat, luciferase reporter, luminescence, B- and T-cell (AID 489004); type: functional, cell-based; conditions: Homo sapiens;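 further: NF-kB luciferase reporter Jurkat cells stimulated with PMA plus ionomycin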
[10] = cytotoxicity in HEK-293T NF-kB-Luc cells, dose response, cytotoxicity control for B/T-cell NF-kB inhibitor project, cell-based, uHTS hits (AID 489019); type: functional;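 further: IC50 reflects cytotoxicity as loss of cell viability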
[11] = cytotoxicity toward NIH3T3 fibroblasts, dose response, counter-screen, cell-based, ATP luminescence, mouse fibroblasts (AID 2010); type: functional;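 further: cells exposed to compound for about 90 hours before reading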
[12] = NIH-3T3 fibroblast cytotoxicity, dose response, cytotoxicity control, cell-based, fluorescence, Alamar Blue, secondary assay (AID 2327); type: functional;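 further: NIH-3T3 mouse fibroblasts cultured with fluconazole at 8 µg/mL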
[13] = C. albicans growth with fluconazole, confirmation, fluorescence, retest (AID 2467); type: functional, cell-based

Sequence of Voltage-gated inwardly rectifying potassium channel KCNH2 (Q12809 whole entry): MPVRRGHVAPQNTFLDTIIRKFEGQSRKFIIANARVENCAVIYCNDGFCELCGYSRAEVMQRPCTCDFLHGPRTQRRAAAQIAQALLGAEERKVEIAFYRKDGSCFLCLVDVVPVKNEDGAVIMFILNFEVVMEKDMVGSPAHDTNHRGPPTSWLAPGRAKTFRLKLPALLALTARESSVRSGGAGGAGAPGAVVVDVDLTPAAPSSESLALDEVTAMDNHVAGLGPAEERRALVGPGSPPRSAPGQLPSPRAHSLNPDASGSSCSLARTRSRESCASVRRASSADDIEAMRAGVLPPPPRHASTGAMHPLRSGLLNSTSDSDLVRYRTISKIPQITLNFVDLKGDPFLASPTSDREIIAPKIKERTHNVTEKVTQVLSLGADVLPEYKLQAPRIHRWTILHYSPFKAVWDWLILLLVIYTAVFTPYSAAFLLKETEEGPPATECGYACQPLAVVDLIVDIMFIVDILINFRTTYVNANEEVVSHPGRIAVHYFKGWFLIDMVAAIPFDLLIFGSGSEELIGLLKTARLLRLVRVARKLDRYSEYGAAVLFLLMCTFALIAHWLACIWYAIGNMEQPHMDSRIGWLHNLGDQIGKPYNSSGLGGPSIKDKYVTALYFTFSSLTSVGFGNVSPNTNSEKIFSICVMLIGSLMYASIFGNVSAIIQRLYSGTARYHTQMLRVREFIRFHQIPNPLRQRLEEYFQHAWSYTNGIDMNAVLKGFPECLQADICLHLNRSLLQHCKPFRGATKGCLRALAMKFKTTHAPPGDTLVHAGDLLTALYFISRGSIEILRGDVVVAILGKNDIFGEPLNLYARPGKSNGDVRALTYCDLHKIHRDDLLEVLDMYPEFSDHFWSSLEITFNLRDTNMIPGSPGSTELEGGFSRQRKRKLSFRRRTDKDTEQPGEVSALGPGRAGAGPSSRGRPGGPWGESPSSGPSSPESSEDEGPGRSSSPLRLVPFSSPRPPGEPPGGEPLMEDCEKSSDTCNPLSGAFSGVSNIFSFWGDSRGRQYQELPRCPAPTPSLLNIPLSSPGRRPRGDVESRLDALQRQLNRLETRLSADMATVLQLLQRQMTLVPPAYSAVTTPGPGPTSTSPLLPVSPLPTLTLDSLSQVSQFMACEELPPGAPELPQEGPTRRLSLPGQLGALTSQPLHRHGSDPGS

With `NC(=S)NCCCC(N)C(=O)O` (stereo not given) the AC50 [1] was 35.5 µM (inconclusive).
In the case of `CCOc1cc(/C=C2/S/C(=N\c3ccccc3)NC2=O)cc(I)c1OCC(=O)O`, the IC50 [2] was 6.03 µM (active), the IC50 [3] was 56.6 µM (active) and the IC50 [4] was 33.8 µM (active). The IC50 [5] was 2.33 µM (active), the IC50 [6] was > 100 µM (inactive) and the IC50 [7] was 30.2 µM (active). For the same compound, the IC50 [8] was 7.6 µM (active).
With `CCn1c(C)nc2cc(C(=O)N/N=C(\C)c3ccccc3O)ccc21` the AC50 (HeLa) was 126 µM (active).
With `CN(C)c1ccc(-c2n(C)c3ccccc3[n+]2C)cc1` the EC50 [9] was 0.582 µM (active), the IC50 (Jurkat) was > 80 µM (inactive) and the IC50 [10] was > 80 µM (inactive). The EC50 [11] was 18.1 µM (active), the EC50 [12] was > 150 µM (inactive) and the EC50 [13] was 2.18 µM (active).
